One data set concerns Coxsackievirus B1. The experiment in a line: In vivo antiviral activity against lethal infection with Coxsackievirus B1 in mice. Also on record: species or system DDY mice. The settings on record: up to 21 days. How it is done: The activity of the compounds against lethal infection with Coxsackievirus B1 was tested in mice. DDY mice weighing about 15 g were infected intraperitoneally with about the tenfold LD50 dose of the virus. The infected mice were treated 9 times with the compounds either orally 0, 2, 5, 18, 24, 42, 48, 66 and 72 hours or intraperitoneally 1, 2, 4, 18 and 28 hours after infection. The survivals were recorded up to 21 days.
Non-treated (controls) mice died at 3 to 5 days after infection.

The next data set deals with rhinovirus HGP. The experiment in a line: Inhibition of viral cytopathogenic effect (c.p.e.) of rhinovirus HGP in HeLa cells. Particulars: Enterovirus, HeLa, 48 h, read-out: IC50 against rhinovirus HGP (concentration inhibiting the viral c.p.e. by 50%). The format is cell-based, human rhinoviruses. The method, then: A suspension of HeLa cells (6×10^4) was mixed with rhinovirus HGP (3×10^3 plaque forming units, PFU) and was plated in a microtest plate containing the compounds to be tested serially diluted. The cells were then cultured with Eagle's minimum essential medium containing 2% calf serum, 1% tryptose phosphate broth, 100 μg/ml of streptomycin sulfate and 20 unit/ml of penicillin G. Viral c.p.e. (cytopathogenic effect) was observed by a microscope after 2 days culture at 33° C.
The antiviral activity of the tested compounds is expressed by the concentration inhibiting the viral c.p.e. by 50% when compared to the control culture (IC50).

Another data set in a line: in vivo. Particulars: mouse, DDY mice, single dose. How it is done: ^(1) DDY mice weighing 15-20 g were treated with a single dose of the
compound. Survivors were recorded on day 21.
^(2) Compounds were dissolved in dimethylsulfoxide.
^(3) Compounds were suspended with solution of 0.5% carboxymethyl

Setting [1] is: ip, i.p., dissolved in dimethylsulfoxide, day 21, read-out: LD50 i.p.
The mark [2] stands for this setting: po, p.o., suspended in 0.5% carboxymethyl cellulose, day 21, read-out: LD50 p.o.

In brackets after ≈: the same amount, converted by molar mass. Read-outs that look alike come from different tables or passages of the source.

As for `CCC(=O)Oc1cc(OC)cc(OC)c1C(=O)/C=C/c1ccc(OC)cc1` [2',4,4'-trimethoxy-6'-(propionyloxy)chalcone], the Survival in the data set on Coxsackievirus B1 (20 mg/kg × 5, i.p., control 0%) is reported as 25%; in the data set on Coxsackievirus B1 (40 mg/kg × 5, i.p., control 0%), 75%. For the same compound, the IC50 in the data set with rhinovirus HGP was 0.01 µg/mL (≈ 0.027 µM). Besides, the results for the LD50 at 504 h in the data set “in vivo” (setting [1]) and in the data set “in vivo” (setting [2]) were more than 500 mg/kg and more than 5000 mg/kg, respectively.
`COc1cc(O)c(C(=O)C=Cc2cccs2)c(OC)c1` [2'-hydroxy-4',6'-dimethoxy-3-(2-thienyl)-acrylophenone]: the Survival in the data set with Coxsackievirus B1 (20 mg/kg × 9, p.o., control 20%) worked out at 30%; in the data set on Coxsackievirus B1 (40 mg/kg × 9, p.o., control 20%) it was 70%. In the data set with rhinovirus HGP, the IC50 turned out to be 0.03 µg/mL (≈ 0.103 µM). The LD50 at 504 h was more than 1000 mg/kg in the data set “in vivo” (setting [1]) and more than 5000 mg/kg in “in vivo” (setting [2]).
For the compound `COc1cc(O)c(C(=O)C=Cc2ccc3c(c2)OCO3)c(OC)c1` [2'-hydroxy-4',6'-dimethoxy-3,4-(methylenedioxy)-chalcone], the IC50 in the data set on rhinovirus HGP came to 0.02 µg/mL (≈ 0.0609 µM). Besides, the LD50 at 504 h was more than 1000 mg/kg in “in vivo” (setting [1]) and more than 5000 mg/kg in “in vivo” (setting [2]).
The matching figures for `COc1cc(O)c(C(=O)/C=C/c2ccc(SC)cc2)c(OC)c1` [2'-hydroxy-4',6'-dimethoxy-4-(methylthio)-chalcone]: 0.03 µg/mL (≈ 0.0908 µM), more than 1000 mg/kg and more than 5000 mg/kg.
Turning to `COc1cc(O)c(C(=O)C=Cc2ccco2)c(OC)c1` [3-(2-furyl)-2'-hydroxy-4',6'-dimethoxyacrylophenone], the IC50 in the data set on rhinovirus HGP lay in the range of 0.06 to 0.2 µg/mL (≈ 0.219 to 0.729 µM). The LD50 at 504 h was more than 500 mg/kg in the data set “in vivo” (setting [1]) and more than 1500 mg/kg in “in vivo” (setting [2]).
The like results for `CCC(=O)Oc1cc(OC)cc(OC)c1C(=O)/C=C/c1ccc(SC)cc1` [2',4'-dimethoxy-4-(methylthio)-6'-(propionyloxy)-chalcone] were, in that order, 0.03 to 0.1 µg/mL (≈ 0.0776 to 0.259 µM), more than 1000 mg/kg and more than 5000 mg/kg.
With `C=CCOc1ccc(/C=C/C(=O)c2c(OC)cc(OC)cc2OC(=O)CC)cc1` [4-(allyloxy)-2',4'-dimethoxy-6'-(propionyloxy)-chalcone], the IC50 with rhinovirus HGP was in the range of 0.03 to 0.1 µg/mL (≈ 0.0757 to 0.252 µM). Moreover, the LD50 at 504 h was more than 500 mg/kg in “in vivo” (setting [1]) and more than 1000 mg/kg in “in vivo” (setting [2]).
The like results for `COc1cc(O)c(C(=O)/C=C/c2ccc(OCc3ccccc3)c(OC)c2)c(OC)c1` [4-(benzyloxy)-2'-hydroxy-3,4',6'-trimethoxychalcone] were, in that order, 1 µg/mL (≈ 2.38 µM), more than 500 mg/kg and more than 1500 mg/kg.
The like results for `COc1cc(O)c(C(=O)/C=C/c2ccccc2)c(OC)c1` [2'-hydroxy-4',6'-dimethoxychalcone] were, in that order, 0.1 to 0.3 µg/mL (≈ 0.352 to 1.06 µM), more than 1000 mg/kg and more than 5000 mg/kg.
The matching figures for `COc1ccc(/C=C/C(=O)c2c(O)cc(OC)cc2OC(C)C)cc1` [2'-hydroxy-6'-isopropoxy-4,4'-dimethoxychalcone]: 0.1 to 0.2 µg/mL (≈ 0.292 to 0.584 µM), more than 500 mg/kg and more than 2700 mg/kg.
As to `COc1cc(O)c(C(=O)/C=C/c2ccc(O)cc2)c(OC)c1` [2',4-dihydroxy-4',6'-dimethoxychalcone], the IC50 in the data set on rhinovirus HGP is 0.3 to 1 µg/mL (≈ 0.999 to 3.33 µM). For the same compound, the LD50 at 504 h was more than 500 mg/kg in the data set “in vivo” (setting [1]) and more than 3200 mg/kg in “in vivo” (setting [2]).
The like results for `CCC(=O)Oc1cc(OC)cc(OC)c1C(=O)C=Cc1ccc(C)o1` [2',4'-dimethoxy-3-(5-methyl-2-furyl)-6'-(propionyloxy)-acrylophenone] were, in that order, 0.03 to 0.1 µg/mL (≈ 0.0871 to 0.29 µM), more than 500 mg/kg and more than 2000 mg/kg.
Turning to `COc1ccc(/C=C/C(=O)c2c(OC)cc(OC)cc2OC(=O)[C@H](C)N)cc1` [2'-(L-alanyloxy)-4,4',6'-trimethoxychalcone], the IC50 with rhinovirus HGP fell in the range of 0.03 to 0.1 µg/mL (≈ 0.0778 to 0.259 µM). The LD50 at 504 h in “in vivo” (setting [1]) is more than 180 mg/kg; in “in vivo” (setting [2]), more than 1000 mg/kg.
On to `CCC(=O)Oc1cc(OC)cc(OC)c1C(=O)C=Cc1ccc2c(c1)OCO2` [2',4'-dimethoxy-3,4-(methylenedioxy)-6'-(propionyloxy)-chalcone], for which, in the data set on rhinovirus HGP, the IC50 came out at 0.1 µg/mL (≈ 0.26 µM). Besides, the LD50 at 504 h in the data set “in vivo” (setting [1]) was more than 500 mg/kg; in “in vivo” (setting [2]), more than 1000 mg/kg.
The matching figures for `COc1ccc(/C=C/C(=O)c2c(OC)cc(OC)cc2OC(=O)c2cnccn2)cc1` [2',4,4'-trimethoxy-6'-(pyrazinylcarbonyloxy)-chalcone]: 0.03 to 0.1 µg/mL (≈ 0.0714 to 0.238 µM), more than 500 mg/kg and more than 4000 mg/kg.
For `COc1cc(O)c(C(=O)/C=C/c2ccc(OC)c(O)c2)c(OC)c1` [2',3-dihydroxy-4,4',6'-trimethoxychalcone], the IC50 with rhinovirus HGP lay within 0.1 to 0.3 µg/mL (≈ 0.303 to 0.908 µM). The LD50 at 504 h in the data set “in vivo” (setting [1]) is more than 500 mg/kg; in “in vivo” (setting [2]) it was more than 1000 mg/kg.
`CCC(=O)Oc1cc(OC)cc(OC)c1C(=O)C=Cc1cccs1` [2',4'-dimethoxy-6'-(propionyloxy)-3-(2-thienyl)-acrylophenone]: in the data set with rhinovirus HGP, the IC50 fell in the range of 0.1 to 0.3 µg/mL (≈ 0.289 to 0.866 µM). The LD50 at 504 h in the data set “in vivo” (setting [1]) was more than 1000 mg/kg; in the data set “in vivo” (setting [2]) it was more than 5000 mg/kg.
Consider `COc1cccc(/C=C/C(=O)c2c(O)cc(OC)cc2OC)c1` [2'-hydroxy-3,4',6'-trimethoxychalcone], for which, in the data set on rhinovirus HGP, the IC50 was 0.1 µg/mL (≈ 0.318 µM). Further, the values for the LD50 at 504 h in “in vivo” (setting [1]) and in “in vivo” (setting [2]) were more than 500 mg/kg and more than 1000 mg/kg, respectively.
The matching figures for `CCC(=O)Oc1cc(OC)cc(OC)c1C(=O)/C=C/c1ccccc1` [2',4'-dimethoxy-6'-(propionyloxy)-chalcone]: 0.3 to 1 µg/mL (≈ 0.881 to 2.94 µM), more than 1000 mg/kg and more than 5000 mg/kg.
The like results for `CCOc1cc(OC)cc(O)c1C(=O)C=Cc1ccc(C)o1` [2'-ethoxy-6'-hydroxy-4'-methoxy-3-(5-methyl-2-furyl)-acrylophenone] were, in that order, 0.04 µg/mL (≈ 0.132 µM), more than 500 mg/kg and more than 1000 mg/kg.
The matching figures for `CCOc1cc(O)c(C(=O)C=Cc2ccc(C)o2)c(OCC)c1` [2',4'-diethoxy-6'-hydroxy-3-(5-methyl-2-furyl)-acrylophenone]: 0.04 to 0.12 µg/mL (≈ 0.126 to 0.379 µM), more than 500 mg/kg and more than 1000 mg/kg.
Regarding `COc1cc(O)c(C(=O)/C=C/c2cccc(OC)c2OC)c(OC)c1` [2'-hydroxy-2,3,4',6'-tetramethoxychalcone], the IC50 in the data set on rhinovirus HGP was 0.1 µg/mL (≈ 0.29 µM). For the same compound, the figures for the LD50 at 504 h in “in vivo” (setting [1]) and in “in vivo” (setting [2]) were more than 500 mg/kg and more than 1000 mg/kg, respectively.
The like results for `CCCOc1ccc(/C=C/C(=O)c2c(OC)cc(OC)cc2OC(=O)CC)cc1` [2',4'-dimethoxy-6'-(propionyloxy)-4-propoxychalcone] were, in that order, 0.1 to 0.3 µg/mL (≈ 0.251 to 0.753 µM), more than 1000 mg/kg and more than 5000 mg/kg.
`COc1ccc(/C=C/C(=O)c2ccc(OC)cc2O)cc1` [2'-hydroxy-4,4'-dimethoxychalcone]: in the data set with rhinovirus HGP, the IC50 is 0.3 to 1 µg/mL (≈ 1.06 to 3.52 µM). The LD50 at 504 h in the data set “in vivo” (setting [1]) is more than 1000 mg/kg; in the data set “in vivo” (setting [2]) it was more than 2500 mg/kg.
The matching figures for `COc1cc(O)c(C(=O)/C=C/c2ccc(C#N)cc2)c(OC)c1` [4-cyano-2'-hydroxy-4',6'-dimethoxychalcone]: 0.3 µg/mL (≈ 0.97 µM), more than 500 mg/kg and more than 1000 mg/kg.
Regarding `COc1ccc(/C=C/C(=O)c2c(OC)cc(OC)cc2OC(=O)CCCC(=O)O)cc1` [2'-(4-carboxybutanoyloxy)-4,4',6'-trimethoxychalcone], the IC50 in the data set with rhinovirus HGP was 0.03 µg/mL (≈ 0.07 µM). For the same compound, the results for the LD50 at 504 h in the data set “in vivo” (setting [1]) and in the data set “in vivo” (setting [2]) were more than 500 mg/kg and more than 2000 mg/kg, respectively.

The values are drawn from patent US4605674A, “Substituted acetophenones and compositions containing them” (Hoffmann-La Roche Inc., priority 1979, dated 1986).
